Laboratory results published in patent publication EP2790511B1 (Merck Sharp & Dohme Corp., priority 2011, dated 2013).

Molecular target: T1, hROMK (hKir1.1) (Homo sapiens, UniProt P48048)
T1 construct: expressed in transfected cells
T1 sequence (P48048 1-391): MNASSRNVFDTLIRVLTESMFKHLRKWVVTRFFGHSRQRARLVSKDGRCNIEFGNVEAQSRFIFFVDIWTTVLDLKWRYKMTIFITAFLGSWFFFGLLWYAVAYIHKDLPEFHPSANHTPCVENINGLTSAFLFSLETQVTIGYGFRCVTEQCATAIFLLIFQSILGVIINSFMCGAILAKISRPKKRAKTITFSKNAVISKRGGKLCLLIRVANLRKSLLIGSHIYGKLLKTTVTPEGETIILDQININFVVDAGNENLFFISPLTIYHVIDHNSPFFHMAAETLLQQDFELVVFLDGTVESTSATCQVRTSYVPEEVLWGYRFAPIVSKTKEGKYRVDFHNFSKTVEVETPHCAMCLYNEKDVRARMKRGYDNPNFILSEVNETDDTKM
Assay: Thallium Flux Assay
Assay type: cell-based
Details: HEK293 cells stably expressing hROMK (hKir1.1), FLIPR-Tetra; read-out: Thallium Flux IC50
Method in brief: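 HEK293 cells stably expressing hROMK, loaded with FluxOR dye 90 min at ambient temperature, then compound 30 min with 0.3 mM ouabain in probenecid buffer pH 7.4.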

Point of comparison: `Cc1c([C@H]2CN3CCN(C(=O)Cc4cnc(-n5cnnn5)nc4C(F)(F)F)C[C@H]3CO2)ccc(F)c1C#N` [Example 158, 6-fluoro-2-methyl-3-[(3S,9aS)-8-{[2-(1H-tetrazol-1-yl)-4-(trifluoromethyl)pyrimidin-5-yl]acetyl}octahydropyrazino[2,1-c][1,4]oxazin-3-yl]benzonitrile], IC50 200 nM. Against it:
- Cc1c([C@@H]2CN3CCN(C(=O)Cc4cccc(-n5cnnn5)n4)C[C@@H]3CO2)ccc(F)c1C#N [Example 161, 6-fluoro-2-methyl-3-[(3R,9aR)-8-{[6-(1H-tetrazol-1-yl)pyridin-2-yl]acetyl}octahydropyrazino[2,1-c][1,4]oxazin-3-yl]benzonitrile] — 1.8-fold higher, 350 nM
- Cc1c([C@H]2CN3CCN(C(=O)Cc4ccc(-n5cnnn5)nc4)C[C@H]3CO2)csc1C#N [Example 69, 3-methyl-4-[(3S,9aS)-8-{[6-(1H-tetrazol-1-yl)pyridin-3-yl]acetyl}octahydropyrazino[2,1-c][1,4]oxazin-3-yl]thiophene-2-carbonitrile] — 1.8-fold lower, 110 nM
- Cc1c(C#N)cccc1[C@@H]1CN2CCN(C(=O)Cc3cnc(-n4cnnn4)nc3)C[C@H]2CO1 [Example 17, 2-methyl-3-[(3R,9aS)-8-{[2-(1H-tetrazol-1-yl)pyrimidin-5-yl]acetyl}octahydropyrazino[2,1-c][1,4]oxazin-3-yl]benzonitrile] — within 1.5-fold, 160 nM
- Cc1cc(CC(=O)N2CCN3C[C@H](c4ccc(F)c(C#N)c4C)OC[C@H]3C2)cnc1-n1cnnn1 [Example 134, 6-fluoro-2-methyl-3-[(3S,9aR)-8-{[5-methyl-6-(1H-tetrazol-1-yl)pyridin-3-yl]acetyl}octahydropyrazino[2,1-c][1,4]oxazin-3-yl]benzonitrile] — within 1.5-fold, 280 nM
- COc1cc([C@H]2CN3CCN(C(=O)Cc4cnc(-n5cnnn5)nc4)C[C@H]3CO2)ccc1C#N [Example 143, 2-methoxy-4-[(3S,9aS)-8-{[2-(1H-tetrazol-1-yl)pyrimidin-5-yl]acetyl}octahydropyrazino[2,1-c][1,4]oxazin-3-yl]benzonitrile] — within 1.5-fold, 190 nM
- Cc1c([C@H]2CN3CCN(C(=O)Cc4cnc(-n5cnnn5)c(F)c4)C[C@@H]3CO2)ccc(F)c1C#N [Example 147, 6-fluoro-3-[(3S,9aR)-8-{[5-fluoro-6-(1H-tetrazol-1-yl)pyridin-3-yl]acetyl}octahydropyrazino[2,1-c][1,4]oxazin-3-yl]-2-methylbenzonitrile] — within 1.5-fold, 140 nM
- Cc1cc2c(cc1[C@@H]1CN3CCN(C(=O)Cc4ccc(-n5cnnn5)nc4)C[C@H]3CO1)COC2=O [Example 72, 6-methyl-5-[(3R,9aS)-8-{[6-(1H-tetrazol-1-yl)pyridin-3-yl]acetyl}octahydropyrazino[2,1-c][1,4]oxazin-3-yl]-2-benzofuran-1(3H)-one] — 3.8-fold higher, 750 nM
- N#Cc1c(F)cc([C@@H]2CN3CCN(C(=O)Cc4ccc(-n5cnnn5)nc4)C[C@H]3CO2)cc1F [Example 110, 2,6-difluoro-4-[(3R,9aS)-8-{[6-(1H-tetrazol-1-yl)pyridin-3-yl]acetyl}octahydropyrazino[2,1-c][1,4]oxazin-3-yl]benzonitrile] — 1.9-fold higher, 370 nM
- Cc1nc(-n2cnnn2)ccc1CC(=O)N1CCN2C[C@@H](c3ccc(F)c(C#N)c3C)OC[C@@H]2C1 [Example 77, 6-fluoro-2-methyl-3-[(3R,9aS)-8-{[2-methyl-6-(1H-tetrazol-1-vl)pvridin-3-yl]acetyl}octahydropyrazino[2,1-c][1,4]oxazin-3-yl]benzonitrile] — 2-fold lower, 100 nM
- Cc1c([C@@H]2CN3CCN(C(=O)Cc4ccc(-n5cnnn5)nc4)C[C@H]3CO2)ccc(Cl)c1C#N [Example 65] — within 1.5-fold, 150 nM
- Cc1c(C#N)cncc1[C@@H]1CN2CCN(C(=O)Cc3ccc(-n4cnnn4)nc3)C[C@H]2CO1 [Example 74, 4-methyl-5-[(3R,9aS)-8-{[6-(1H-tetrazol-1-yl)pyridin-3-yl]acetyl}octahydropyrazino[2,1-c][1,4]oxazin-3-yl]pyridine-3-carbonitrile] — 1.9-fold higher, 390 nM
- N#Cc1c(F)ccc([C@H]2CN3CCN(C(=O)Cc4ccc(-n5cnnn5)cn4)C[C@H]3CO2)c1F [Example 86] — within 1.5-fold, 290 nM
- N#Cc1c(F)cc([C@H]2CN3CCN(C(=O)Cc4ccc(-n5cnnn5)nc4)C[C@H]3CO2)cc1F [Example 109, 2,6-difluoro-4-[(3S,9aS)-8-{[6-(1H-tetrazol-1-yl)pyridin-3-yl]acetyl}octahydropyrazino[2,1-c][1,4]oxazin-3-yl]benzonitrile] — within 1.5-fold, 190 nM
- N#Cc1ccc([C@H]2CN3CCN(C(=O)Cc4ccc(-n5cnnn5)nc4)C[C@H]3CO2)cc1F [Example 67, 2-fluoro-4-[(3S,9aS)-8-{[6-(1H-tetrazol-1-yl)pyridin-3-yl]acetyl}octahydropyrazino[2,1-c][1,4]oxazin-3-yl]benzonitrile] — 2.9-fold lower, 70 nM
- C[C@@H]1Cc2cc([C@@H]3CN4CCN(C(=O)Cc5ccc(-n6cnnn6)nc5)C[C@H]4CN3)ccc2C(=O)O1 [Example 196, (3R)-3-methyl-6-[(3R,9aR)-8-{[6-(1H-tetrazol-1-yl)pyridin-3-yl]acetyl}octahydro-2H-pyrazino[1,2-a]pyrazin-3-yl]-3,4-dihydro-1H-isochromen-1-one] — within 1.5-fold, 230 nM
- Cc1c([C@H]2CN3CCN(C(=O)Cc4ccc(-n5cnnn5)nc4)C[C@H]3CN2)ccc2c1COC2=O [Example 190, 4-methyl-5-[(3S,9aR)-8-{[6-(1H-tetrazol-1-yl)pyridin-3-yl]acetyl}octahydro-2H-pyrazino[1,2-a]pyrazin-3-yl]-2-benzofuran-1(3H)-one] — 1.9-fold higher, 390 nM
- COc1cc([C@H]2CN3CCN(C(=O)Cc4ccc(-n5cnnn5)nc4)C[C@H]3CO2)cc(F)c1C#N [Example 113, 2-fluoro-6-methoxy-4-[(3S,9aS)-8-{[6-(1H-tetrazol-1-vl)pvridin-3-yl]acetyl}octahydropyrazino[2,1-c][1,4]oxazin-3-yl]benzonitrile] — 1.7-fold lower, 120 nM
- Cc1c([C@H]2CN3CCN(C(=O)Cc4ccc(-n5cnnn5)nc4)C[C@H]3CO2)ccc2nonc12 [Example 176, (3S,9aS)-3-(4-methyl-2,1,3-benzoxadiazol-5-yl)-8-{[6-(1H-tetrazol-1-yl)pyridin-3-yl]acetyl}octahydropyrazino[2,1-c][1,4]oxazine] — the same, 200 nM
- Cc1c(C#N)cccc1[C@H]1CN2CCN(C(=O)Cc3cnc(-n4cnnn4)nc3)C[C@H]2CO1 [Example 18, 2-methyl-3-[(3S,9aS)-8-{[2-(1H-tetrazol-1-yl)pyrimidin-5-yl]acetyl}octahydropyrazino[2,1-c][1,4]oxazin-3-yl]benzonitrile] — 1.6-fold higher, 320 nM
- Cc1c([C@@H]2CN3CCN(C(=O)Cc4ccc(-n5cnnn5)nc4)C[C@H]3CO2)csc1C#N [Example 68, 3-methyl-4-[(3R,9aS)-8-{[6-(1H-tetrazol-1-yl)pyridin-3-yl]acetyl}octahydropyrazino[2,1-c][1,4]oxazin-3-yl]thiophene-2-carbonitrile] — 5-fold lower, 40 nM

Same assay, conditions: Thallium Flux IC50

Point of comparison: `Cc1c([C@H]2CN3CCN(C(=O)Cc4ccc(-n5cnnn5)cn4)C[C@H]3CO2)ccc2c1COC2=O` [Example 29, 4-methyl-5-[(3S,9aS)-8-{[5-(1H-tetrazol-1-yl)pyridin-2-yl]acetyl}octahydropyrazino[2,1-c][1,4]oxazin-3-yl]-2-benzofuran-1(3H)-one], IC50 110 nM. Against it:
- Cc1c([C@@H]2CN3CCN(C(=O)Cc4cnc(-n5cnnn5)cn4)C[C@@H]3CO2)ccc2c1COC2=O [Example 123, 4-methyl-5-[(3R,9aR)-8-{[5-(1H-tetrazol-1-yl)pyrazin-2-yl]acetyl}octahydropyrazino[2,1-c] [1,4]oxazin-3-yl]-2-benzofuran-1(3H)-one] — 6.3-fold higher, 690 nM
- O=C(Cc1ccc(-n2cnnn2)nc1)N1CCN2C[C@H](c3ccc4nonc4c3)OC[C@@H]2C1 [Example 180, (3S,9aS)-3-(2,1,3-benzoxadiazol-5-yl)-8-{[6-(1H-tetrazol-1-vl)pvridin-3-yl]acetyl}octahydropyrazino[2,1-c][1,4]oxazine] — 5.4-fold higher, 590 nM
- O=C(Cc1ccc(-n2cnnn2)nc1)N1CCN2C[C@@H](c3ccc4nonc4c3)OC[C@@H]2C1 [Example 179, (3R,9aS)-3-(2,1,3-benzoxadiazol-5-yl)-8-{[6-(1H-tetrazol-1-vl)pvridin-3-yl]acetyl}octahydropyrazino[2,1-c][1,4]oxazine] — 1.6-fold higher, 180 nM
- Cc1c([C@@H]2CN3CCN(C(=O)Cc4ccc(-n5cnnn5)cn4)C[C@@H]3CO2)ccc(F)c1C#N [Example 32, 6-fluoro-2-methyl-3-[(3R,9aR)-8-{[5-(1H-tetrazol-1-yl)pyridin-2-yl]acetyl}octahydropyrazino[2,1-c][1,4]oxazin-3-yl]benzonitrile] — within 1.5-fold, 80 nM
- COc1cc([C@@H]2CN3CCN(C(=O)Cc4ccc(-n5cnnn5)nc4)C[C@H]3CO2)cc(F)c1C#N [Example 114, 2-fluoro-6-methoxy-4-[(3R,9aS)-8-{[6-(1H-tetrazol-1-vl)pvridin-3-yl]acetyl}octahydropyrazino[2,1-c][1,4]oxazin-3-yl]benzonitrile] — the same, 110 nM
- N#Cc1c(F)cc([C@@H]2CN3CCN(C(=O)Cc4cnc(-n5cnnn5)nc4)C[C@@H]3CO2)cc1F [Example 115, 2,6-difluoro-4-[(3R,9aR)-8-{[2-(1H-tetrazol-1-yl)pyrimidin-5-yl]acetyl}octahydropyrazino[2,1-c][1,4]oxazin-3-yl]benzonitrile] — 2.5-fold higher, 270 nM
